Laboratory results reported in patent US20090311227A1, “Composition” (Danisco A/S, priority 2006, published 2009).

Legend:
[1] = test system: rats with visceral hypersensitivity induced by the butyrate; experiment: CRD test, role of CB2 and MOR receptors in NCFM-induced analgesia (antagonists) in butyrate-treated rats; assay type: in vivo, rat; settings: for effect on NCFM-induced analgesia: butyrate-treated rats receiving NCFM 10^9 CFU/day 15 days, antagonist given peritoneally 30 min before CRD (AM630, naloxone methiodide 2 mg/kg); for effect on pain perception in control rats: control rats with butyrate-induced visceral hypersensitivity, no NCFM, AM630 or naloxone methiodide 2 mg/kg, 30 min before CRD
Procedure: Male Sprague-Dawley rats (Charles River, l'Arbresle, France) weighing 175-200 g were used in this study. Rats were maintained in laboratory conditions for 1 week before experiment. The animals were housed 5 per cage with food and water available ad libitum. All studies were performed in accordance with the proposal of the committee for Research and Ethical Issues of the International Association for the Study of Pain (Zimmermann M, Pain. 1983; 16:109-110). Great care was taken, particularly with regard to housing conditions, to avoid or minimize discomfort to the animals.
For each enema, a catheter (2-mm Fogarty catheter) was placed in the colon at 7 cm from the anus, and the animals received 1 ml of 200 mM of sodium butyrate at neutral pH (pH6.9) twice daily for 3 days. Healthy animals received saline.
Nociception in the animals was assessed by measuring the intracolonic pressure required to induce a behavioral response during colorectal distension (CRD) due to the inflation of a balloon introduced in the colon. This response was characterized by an elevation of the hind part of the animal body and clearly visible abdominal contraction corresponding to the severe contractions (Al Chaer, gastro 2000; Tarrerias, pain 2002; Bourdu et al., 2005). Briefly, rats were anesthetized with volatile anaesthesia (2% isoflurane), the balloon (prepared as previously described in Bourdu & al, 2005) was inserted intrarectally in a minimally invasive manner to 7 cm from the anus, and the catheter was taped to the base of the tail. After 5 minutes, rats were placed in the middle of a 40×40-cm Plexiglas box and the catheter was connected to an electronic barostat apparatus (Synectics Visceral Stimulator; Medtronic, Boulogne-Billancourt, France).
Four groups of animals treated with butyrate were used (n=10/group). Two groups were treated once a day during fifteen days by gastric gavage, 10^9 CFU of NCFM strain and the two other groups of butyrate-treated animals received CarboxyMethyl Cellulose (CMC) by the same route and during the same time. NCFM strain was resuspended in 0.5% CMC (CarboxyMethyl Cellulose, Sigma). Butyrate instillations began 7 days after the first gavage for three days. Colonic hypersensitivity was determined 14 days after the after beginning of oral treatment thus 7 days after colonic instillations. […]
(§1) All experiments were performed in a blind manner by the same experimenter using the block method. Results are expressed as mean±SEM of raw data. Results of CRD testing were analysed using one-way analysis of variance (ANOVA) followed of a Bonferroni post-hoc test to compare several treatments. […]

[2] = test system: rats with colonic hypersensitivity induced by butyrate enemas; settings: rat with visceral hypersensitivity induced by butyrate; known from Bourdu et al; cited from earlier work
[3] = test system: rats with colonic hypersensitivity induced by butyrate; experiment: CRD test, probiotic co-administered with suboptimal morphine in rats with butyrate-induced colonic hypersensitivity; assay type: in vivo, rat; settings: butyrate-treated rats
Procedure: Male Sprague-Dawley rats (Charles River, l'Arbresle, France) weighing 175-200 g were used in this study. Rats were maintained in laboratory conditions for 1 week before experiment. The animals were housed 5 per cage with food and water available ad libitum. All studies were performed in accordance with the proposal of the committee for Research and Ethical Issues of the International Association for the Study of Pain (Zimmermann M, Pain 1983; 16:109-110). Great care was taken, particularly with regard to housing conditions, to avoid or minimize discomfort to the animals. […]
Nociception in the animals was assessed by measuring the intracolonic pressure required to induce a behavioral response during colorectal distension (CRD) due to the inflation of a balloon introduced in the colon. […]
Four groups of animals treated with butyrate were used (n=10/group). […] Colonic hypersensitivity was determined 14 days after the after beginning of oral treatment thus 7 days after colonic instillations. […]
as §1

Row | SMILES | effect on NCFM-induced analgesia [1] | effect on pain perception in control rats [1] | effect on colonic hypersensitivity in CRD test [2] | pain threshold ([3]; morphine 0.1 mg/kg subcutaneously alone, 30 min before CRD, mean±SEM) | difference on pain threshold vs rats not receiving morphine ([3]; suboptimal dosage of morphine 0.1 mg/kg)
1 | COc1ccc(C(=O)c2c(C)n(CCN3CCOCC3)c3cc(I)ccc23)cc1 [AM630] | significantly inhibited | no effect | – | – | –
2 | C=CC[N+]1(C)CC[C@]23c4c5ccc(O)c4O[C@H]2C(=O)CC[C@@]3(O)[C@H]1C5 (stereo partly shown) [NLX, naloxone methiodide] | not | no effect | – | – | –
3 | CN1CC[C@]23c4c5ccc(O)c4O[C@H]2[C@@H](O)C=C[C@H]3[C@H]1C5 [morphine] | – | – | dose-dependent decrease | 41.5±2.4 | No difference
